Series [1] concerns airway contraction by histamine. In words: Inhibitory action on contraction of respiratory tract by histamine (Konzett and Roessler method). Format: in vivo, guinea pig. As to conditions: for inhibition in vivo at 30 mg/kg: Cavia porcellus, po, 1 h, read-out: Exp. 4-1 % at which the test compound suppressed airway contraction by histamine. The protocol:
(§1) A respiratory tract contraction (histamine, LTD4) was intravenously administered to anesthetized guinea pig, and a change in airway resistance was measured in accordance with Konzett end Roessler method. The test drug was orally administered 1 hour before the administration of the contraction inducing agent.
(§2) The experiments 1-4 described above were conducted using the compounds of Examples 1, 2, 6, 8, 12, 14, 19, 23, 27, 30, 34, and 35 to be mentioned below, compound (V), and Terfenadine, the results of which are shown in Table 1.
(§3) **% at which the test compound (30 mg/kg, p.o.) suppressed airway
(§4) contraction by histamine (41) or LTD4 (42)

Series [2] relates to airway contraction by LTD4. Nature of the series: Inhibitory action on contraction of respiratory tract by LTD4 (Konzett and Roessler method). Format: in vivo, guinea pig. The settings on record: for inhibition in vivo at 30 mg/kg: Cavia porcellus, po, 1 h, read-out: Exp. 4-2 % at which the test compound suppressed airway contraction by LTD4. The protocol:
as §1, §2, §3, §4

Series [3] deals with contraction of lung parenchymal specimen by histamine. In words: Antihistaminic action: contraction of lung parenchymal specimen caused by histamine. Format: cell-based. The settings on record: test compound 10^-5 M, histamine 10^-5 M, guinea pig lung parenchyma; for inhibition at 10 µM: Cavia porcellus, read-out: Exp. 3 % at which the test compound suppressed contraction by histamine. The protocol: A lung parenchymal specimen extracted from guinea pig was hung in a nutritive solution at 37° C., and applied a load of 0.5 g. Contraction caused by histamine under aeration of 95% O2 +5% CO2 was recorded isometrically. The inhibition by the test drug with respect to the dose-reaction curve by histamine at 10^-7 -10^-4 was examined.
as §2
*% at which the test compound (10^-5 M) suppressed contraction by […]

Series [4] deals with blood platelet aggregation. In words: Inhibitory action on blood platelet aggregation (arachidonic acid aggregation in rich platelet plasma, nephelometry). Format: cell-based. The settings on record: arachidonic acid 0.1 mM, test drug added 1 minute before, read-out: Exp. 2 (IC50) inhibitory action on blood platelet aggregation. The protocol: Arachidonic acid aggregation in rich platelet plasma was determined by nephelometry. The test drug was added 1 minute before the addition of the arachidonic acid (0.1 mM).
as §2

Series [5] concerns male ddy mice. Nature of the series: Acute toxicity, oral, male ddy mice. Format: in vivo. As to conditions: 1000 mg/20 ml/kg orally, 5 male ddy mice. The protocol:
The compound of Example 6 was suspended in a 5% gum arabic solution and orally administered to 5 male ddy mice at 1000 mg/20 ml /kg.

The test system of series [6] is synthesis of TXA2. Nature of the series: Inhibitory action on synthesis of TXA2 (PGH2 substrate, aspirin-treated platelets, TXB2 by RIA). Format: cell-based. The settings on record: Platelet, read-out: Exp. 1 (IC50) inhibitory action on synthesis of TXA2. The method, then: Prostaglandin H2 (PGH2) was added as a substrate to an aspirin-treated platelet floating solution, and the mixture was incubated at 37° C. The resultant TXA2 was converted to TXB2, and measured by RIA method. The test drug was added 10 minutes before the addition of PGH2.
as §2

[7] abbreviates: 30 mg/kg, p.o., 1 hour before histamine i.v., anesthetized guinea pig.
The mark [8] stands for this setting: 30 mg/kg, p.o., 1 hour before LTD4 i.v., anesthetized guinea pig.
[9] abbreviates: test drug added 10 minutes before PGH2, 37° C.

Counter-ions that a name gives are not always drawn. Like-named read-outs stand apart in the source and are kept apart here.

The results in this text go back to patent US5538973A, “Imidazole derivative, pharmaceutical use thereof, and intermediate therefor” (Kyoto Pharmaceutical Industries, Ltd., priority 1992, dated 1996).

As to `CC(C)(C)c1ccc(C(O)CCCN2CCC(C(O)(c3ccccc3)c3ccccc3)CC2)cc1` (centres unmarked) [Terfenadine, reference compound], the inhibition in vivo at 30 mg/kg in series [1] (setting [7]) was 100%; in series [2] (setting [8]), 27%. In addition, in series [3], the inhibition at 10 µM turned out to be 48%.
In the case of `O=C(O)c1cc2cc(Cn3ccnc3)ccc2n1CCCN1CCN(C(c2ccccc2)c2ccccc2)CC1` [Example 23], in series [4] (listed as Ex. 23), the IC50 was 34 µM. For the same compound, the “Exp. 4-1 % at which the test compound suppressed airway contraction by histamine” value in series [1] (setting [7]) is 94%. Besides, the “Exp. 4-2 % at which the test compound suppressed airway contraction by LTD4” value in series [2] (setting [8]) amounted to 53%. The “Exp. 3 % at which the test compound suppressed contraction by histamine” value in series [3] (10 µM) is reported as 94%.
With `O=C(CN1CCN(CCOC(c2ccccc2)c2ccccc2)CC1)N1CCc2cc(-n3ccnc3)ccc21` [Example 8], the half-inhibitory concentration (IC50) in series [4] (Platelet) was found to be 2.1 µM. The inhibition in vivo at 30 mg/kg in series [1] was found to be 100%; in series [2], 87%. In addition, the inhibition at 10 µM in series [3] turned out to be 55%.
On the same counts, the results for `O=C(O)c1ccc2c(c1)c(CCn1ccnc1)cn2CCCN1CCN(CCOC(c2ccccc2)c2ccccc2)CC1` [Example 35] are 71 µM, 100%, 18% and 100%.
Regarding `Cl.Cl.Cl.O=C(O)c1cc2cc(Cn3ccnc3)ccc2n1CCCN1CCN(C(c2ccccc2)c2ccccc2)CC1` [Example 6, 1-[3-(4-benzhydryl-1-piperazinyl)propyl]-5-(1H-imidazol-1-ylmethyl)-1H-indole-2-carboxylic acid trihydrochloride], the IC50 was found to be 8.1 µM in series [4] (listed as Ex. 6, trihydrochloride) and 0.4 µM in series [6] (setting [9]). Besides, the inhibition in vivo at 30 mg/kg in series [1] (setting [7]) is 100%. For the same compound, the “Exp. 4-2 % at which the test compound suppressed airway contraction by LTD4” value in series [2] (setting [8]) is on record as 75%. Further, in series [5], the death result is reported as “No death was observed”. Moreover, the inhibition at 10 µM in series [3] is 100%.
As for `O=C(COCCN1CCN(C(c2ccccc2)c2ccccc2)CC1)N1CCc2cc(-n3ccnc3)ccc21` [Example 1, 1-[2-(4-benzhydryl-1-piperazinyl)ethoxyacetyl]-5-(1H-imidazol-1-yl)indoline oxalate], the 50% inhibitory concentration (IC50) in series [4] (Platelet) was determined as 4.4 µM. In addition, the inhibition in vivo at 30 mg/kg was determined as 100% in series [1] (setting [7]) and 73% in series [2] (setting [8]). Also, in series [3], the inhibition at 10 µM was found to be 95%.
For `O=C(O)c1ccc2c(c1)c(CCn1ccnc1)cn2CCCN1CCC(Cc2ccccc2)CC1` [Example 34], in that order: more than 100 µM, 90%, 31% and 58%.
As for `O=C(CN1CCN(CCOC(c2ccccc2)c2ccccc2)CC1)N1CCc2cc(Cn3ccnc3)ccc21` [Example 14], the IC50 in series [4] (Platelet) was determined as 58 µM. Besides, the inhibition in vivo at 30 mg/kg in series [1] is 100%; in series [2], 42%. Also, in series [3], the inhibition at 10 µM was 45%.
For the compound `c1ccc(CC2CCN(CCn3ccc4cc(-n5ccnc5)ccc43)CC2)cc1` [Example 27], the 50% inhibitory concentration (IC50) in series [4] (Platelet) is more than 100 µM. The inhibition in vivo at 30 mg/kg is 100% in series [1] (setting [7]) and 68% in series [2] (setting [8]). Besides, the inhibition at 10 µM in series [3] worked out at 58%.
As to `O=C(O)C=Cc1ccc(Cn2ccnc2)cc1` [Compound (V), reference compound], the IC50 in series [4] (Platelet) was determined as 54 µM; in series [6] (setting [9]), 1.5 µM. Also, the inhibition in vivo at 30 mg/kg turned out to be 4% in series [1] (setting [7]) and 57% in series [2] (setting [8]). Further, the inhibition at 10 µM in series [3] amounted to 8%.
Consider `c1ccc(C(c2ccccc2)N2CCN(CCCn3ccc4cc(-n5ccnc5)ccc43)CC2)cc1` [Example 19], for which the IC50 in series [4] (Platelet) is 21 µM. Further, the results for the inhibition in vivo at 30 mg/kg in series [1] (setting [7]) and in series [2] (setting [8]) were 94% and 40%, respectively. Also, in series [3], the inhibition at 10 µM was 45%.
Regarding `O=C(O)c1ccc2c(Cn3ccnc3)cn(CCCN3CCC(Cc4ccccc4)CC3)c2c1` [Example 30], the concentration for half-maximal inhibition (IC50) in series [4] (Platelet) came to 9.9 µM. For the same compound, the inhibition in vivo at 30 mg/kg in series [1] (setting [7]) stood at 100%; in series [2] (setting [8]), 26%. For the same compound, the inhibition at 10 µM in series [3] amounted to 100%.
Turning to `O=C(N1CCN(CCOC(c2ccccc2)c2ccccc2)CC1)N1CCc2cc(Cn3ccnc3)ccc21` [Example 12], in series [4] (Platelet), the half-inhibitory concentration (IC50) was 18 µM. Besides, the inhibition in vivo at 30 mg/kg in series [1] amounted to 100%; in series [2], 64%. For the same compound, in series [3], the inhibition at 10 µM is 61%.
As to `O=C(N1CCN(CCOC(c2ccccc2)c2ccccc2)CC1)N1CCc2cc(-n3ccnc3)ccc21` [Example 2, 1-{4-[(2-benzhydryloxyethyl)-1-piperazinyl]-carbonyl}-5-(1H-imidazol-1-yl)indoline oxalate], the values for the 50% inhibitory concentration (IC50) in series [4] (Platelet) and in series [6] were 4.7 µM and 1.5 µM, respectively. The inhibition in vivo at 30 mg/kg came to 100% in series [1] and 83% in series [2]. For the same compound, the inhibition at 10 µM in series [3] worked out at 66%.

A word on the IC50: it is the concentration at which inhibition is half-maximal.
